Experimental findings from patent publication US11452781B2, “Method of preventing and treating type 1 diabetes, allograft rejection and lung fibrosis (by targeting the ATP/P2X7R axis)” (CHILDREN'S MEDICAL CENTER CORPORATION, priority 2013, dated 2022) are described below.

“Also recorded” adds a separate entry of the source.

In one assay the test system is C57BL/6 splenocytes. Description: In vitro alloimmune ELISPOT, C57BL/6 responder splenocytes vs irradiated BALB/c splenocytes. The format is cell-based, mouse. The following applies: selective P2X1R / P2X3R inhibitors. The source says:
The effect of increasing doses of oATP on Th1/Th17 cytokine levels was next tested. A dose-dependent response was evident, in which oATP reduced the number of cells producing Th1 cytokines (IFN-γ and IL-2) and Th17 cytokines (IL-6 and IL-17). Because it has been reported that oATP may affect other P2XRs, the inventors made use of the availability of the selective P2X1R inhibitor NF 449 and of the selective P2X3R inhibitor NF 110. C57BL/6 splenocytes were stimulated with irradiated BALB/c splenocytes, and IFN-γ production was evaluated in the presence of these inhibitors.

For the next assay, the system named is naïve CD4+ T-cells. Nature of the assay: ELISPOT, naïve CD4+ T cells stimulated with anti-CD3-Ig and anti-CD28-Ig. The format is cell-based, mouse. As to conditions: for anti-CD3-Ig/anti-CD28-Ig-mediated IFN-γ production: 100 μM oATP combined with 50 μM NF-449 and 50 μM 5-BDBD. Here is the method:
The effect of P2X7R targeting was tested by treatment with oATP during T-cell activation. […] Similarly, in a T-cell proliferation assay, CFSE-labeled naïve CD4^+ T-cells were stimulated for 4 days with 0.5 μg/ml anti-CD3-Ig and anti-CD28-Ig; treatment with 100 μM oATP diminished CD4^+ T-cell proliferation (FIG. 5B, right panel) compared to controls (FIG. 5B, left panel).
To address the mechanisms underlying P2X7R targeting mediated inhibition of cardiac transplant rejection, the inventors analyzed the effect of P2X7R targeting on T-cell activation and Th1/Th17 differentiation in vitro. […] The effect of in vitro P2X7R targeting with oATP during CD4+ T-cell activation was tested. […] Second, in a T-cell proliferation assay, carboxyfluorescein diacetate succinimidyl ester-labeled naïve CD4+ T cells were stimulated for 96 hours with 0.5 μg/mL anti-CD3-Ig and anti-CD28-Ig, and treatment with 100 μM oATP diminished CD4+ T cell proliferation in comparison with controls. […] The inventors next tested the effect of in vitro P2X7R targeting during a Th1/Th17 generation and differentiation assay. […] P2X7R targeting with oATP inhibited Th0 conversion into both Th1 and Th17, as assessed by the percentage of IFN-γ+ and IL-17+ cells, respectively. The inventors show, therefore, that P2X7R targeting through oATP suppresses activation, proliferation, and Th1/Th17 differentiation of CD4+ T cells. The inventors then further investigated the role of P2X7R on T-cell activation and Th1/Th17 differentiation by genetic upregulation of P2X7R. P2X7R cDNA was transduced by using a pMY-IRES-GFP retroviral vector into CD4+ T cells (pmY-P2X7R CD4+ T cells), and upregulation of P2X7R expression was confirmed by Western blot. pmY-P2X7R CD4+ T cells were then challenged with anti-CD3-Ig/anti-CD28-Ig stimulation in an ELISPOT assay. […] In a Th1/Th17 generation assay, pmY-P2X7R CD4+ T cells seemed to display increased differentiation capacity in comparison with pmY-mock CD4+ T cells, as assessed by T-bet and ROR-γ expression.
(§1) Several key components of T-cell receptor signaling involved in the alloimmune response were examined, and the phosphorylation kinetics following in vitro anti-CD3-Ig/anti-CD28-Ig-mediated CD4+ T-cell activation was evaluated by using the Luminex assay. […] The inventors first confirmed that Colivelin (Col) was able to restore the activation-induced phosphorylation of STAT3 in a dose-dependent manner in oATP-treated CD4+ T cells by Western blotting. […] The effect of oATP and Colivelin on STAT3 phosphorylation and T-cell function was also evaluated following cardiac transplantation.

Assay [1] concerns B6 recipients of BALB/c lung allografts. Description: Mouse orthotopic lung transplant, BALB/c donor and C57BL/6 recipient. The format is in vivo.
Method: Orthotopic left lung transplants were performed as previously described {Bizargity, #22; Iken, #21}. Briefly, donor mice were anesthetized with ketamine and xylazine, intubated with a 22 G Angiocath, and ventilated with isoflurane/oxygen. Lungs were flushed with ice cold phosphate buffered saline, left lung harvested and cuffs placed in the pulmonary artery, pulmonary vein and bronchus. Recipient mice were anesthetized and ventilated with isoflurane/oxygen, and left lung transplants performed via a thoracotomy and implantation of the three-cuffed hilar structures. Transplanted lungs were harvested 15 to 60-70 days following transplantation.
Allografts were evaluated 15, 30, and 60-70 days after transplant.
Outcome Measures—In vivo assessment of transplanted lung function was performed by thoracic CT scan imaging and measuring peak airway pressures (PawP) as previously described {Bizargity, #22}. […] Flow cytometry and enzyme-linked immunosorbent spot assay (ELISPOT) for interferon (IFN)-γ and interleukin (IL)-4 were performed as previously described {Vergani, #25; Vergani, #9}.
In the next assay the test system is CD4+ and CD8+ T cells. Nature of the assay: IFN-γ production of CD4+ and CD8+ T cells with Bz-ATP. The format is cell-based, mouse.
The subject of assay [2] is C57BL/6 mice transplanted with BALB/c hearts. The format is in vivo, mouse. The following applies: oATP-treated cardiac-transplanted mice.
Method: The effect of P2X7R targeting in preventing cardiac transplant rejection was tested using the P2X7R inhibitor oATP.
The effect of P2X7R targeting in preventing cardiac transplant rejection was tested by using the P2X7R inhibitor oATP.
Assay [3] relates to STAT3. Description: Phosphorylation of T-cell signaling molecules in activated CD4+ T cells (Luminex/Milliplex, Western blot). The format is cell-based, mouse. As to conditions: Colivelin add-back, Western blot. Here is the method: 60 minutes after anti-CD3-Ig and anti-CD28-Ig mediated activation, cells were lysed and the phosphorylation status of CREB, Erk, Akt, JNK, p38, p70 S6 Kinase, STAT3, and STAT5A/B was assessed using the Millipore Milliplex Cell Signaling Assay. […] Data were confirmed by western blot (FIG. 6D).
as §1

For assay [4], the system named is STAT3. Description: STAT3 phosphorylation in CD4+ T cells of cardiac-transplanted mice (Western blot). The format is in vivo, mouse. As to conditions: 7 days after transplantation. Here is the method:
as §1
On the technique in general: In western blotting, separated proteins are transferred to a membrane and probed.

Assay [5] deals with C57BL/6 mice transplanted with BALB/c islets. Nature of the assay: Allogeneic islet transplantation, BALB/c islets into diabetic C57BL/6 mice: graft survival. The following applies: oATP daily i.p. 14-15 days, rapamycin 0.1 mg/kg 10 days. The format is in vivo, mouse.
The subject of assay [6] is PBMCs obtained from healthy control subjects. Description: ELISPOT, human PBMCs challenged with allogeneic irradiated PBMCs. The format is cell-based.

Take `O=C(Nc1cc(C(=O)Nc2ccc(S(=O)(=O)O)cc2)cc(C(=O)Nc2ccc(S(=O)(=O)O)cc2)c1)Nc1cc(C(=O)Nc2ccc(S(=O)(=O)O)cc2)cc(C(=O)Nc2ccc(S(=O)(=O)O)cc2)c1` [NF 110]: the “alloantigen-mediated IFN-γ production” value with C57BL/6 splenocytes is listed as “failed to modulate”.
Regarding `O=C1CN=C(c2cccc(Br)c2)c2oc3ccccc3c2N1` [5-BDBD], in the assay with naïve CD4+ T-cells, the “anti-CD3-Ig/anti-CD28-Ig-mediated IFN-γ production” value is “further suppression”.
With `Cc1ccc(C(=O)Nc2ccc(S(=O)(=O)O)c3cc(S(=O)(=O)O)cc(S(=O)(=O)O)c23)cc1NC(=O)c1cccc(NC(=O)Nc2cccc(C(=O)Nc3cc(C(=O)Nc4ccc(S(=O)(=O)O)c5cc(S(=O)(=O)O)cc(S(=O)(=O)O)c45)ccc3C)c2)c1` [suramin], the “acute cellular rejection (ACR grade)” value in assay [1] (15, 30 and ≥60 days after transplantation) is “reduction”. In addition, the “lung function (PawP)” value in [1] (15 to ≥60 days) is listed as “improved”.
For `Nc1ncnc2c1ncn2[C@@H]1O[C@H](COP(=O)(O)OP(=O)(O)OP(=O)(O)O)[C@@H](OC(=O)c2ccc(C(=O)c3ccccc3)cc2)[C@H]1O` [Bz-ATP, benzoyl-ATP], the IFN-γ production entry with CD4+ and CD8+ T cells (1 mmol/L Bz-ATP, T cells from wildtype mice) is recorded as “increased”; in the assay with CD4+ and CD8+ T cells (T cells from P2X7R2/2 mice), “similarly stimulated”.
On to Colivelin, for which the “effect of Colivelin on oATP-mediated allograft survival” value in assay [2] is given as “greatly abrogated the effect of oATP”. Moreover, the “activation-induced phosphorylation of STAT3 in oATP-treated CD4+ T cells” value in the assay with STAT3 [3] is “restore”. In the assay with STAT3 [4], the “phosphorylated STAT3 in CD4+ T cells” value is “reestablish STAT3 phosphorylation”. The “reversal of oATP-mediated suppression of IFN-γ-producing cells” value in the assay with naïve CD4+ T-cells (Colivelin added to oATP-treated cells) is “significantly revert; also recorded: partially reverted”.
Regarding `CO[C@H]1C[C@@H]2CC[C@@H](C)[C@@](O)(O2)C(=O)C(=O)N2CCCC[C@H]2C(=O)O[C@H]([C@H](C)C[C@@H]2CC[C@@H](O)[C@H](OC)C2)CC(=O)[C@H](C)/C=C(\C)[C@@H](O)[C@@H](OC)C(=O)[C@H](C)C[C@H](C)/C=C/C=C/C=C/1C` [Rapamycin], the “islet allograft mean survival time (MST)” value in [5] is on record as 19 days; in assay [5] (listed as rapamycin), 18 days.
`COC[C@H](O)Cn1c(=O)cnn(-c2ccc(Cl)c(C(=O)NCC3(O)CCCCCC3)c2)c1=O` [CE-224535]: the “allo- and autoimmune responses ex vivo” value in assay [6] is “inhibition”.
Regarding `O=C(Nc1cc(C(=O)Nc2ccc(S(=O)(=O)O)cc2S(=O)(=O)O)cc(C(=O)Nc2ccc(S(=O)(=O)O)cc2S(=O)(=O)O)c1)Nc1cc(C(=O)Nc2ccc(S(=O)(=O)O)cc2S(=O)(=O)O)cc(C(=O)Nc2ccc(S(=O)(=O)O)cc2S(=O)(=O)O)c1` [NF 449], the “anti-CD3-Ig/anti-CD28-Ig-mediated IFN-γ production” value in the assay on naïve CD4+ T-cells was “further suppression”. In the assay with C57BL/6 splenocytes, the “alloantigen-mediated IFN-γ production” value was “failed to modulate”.
